Our source for the IC50 values is US12534452B2, “N-(1H-imidazol-2-yl)benzamide compound and pharmaceutical composition comprising the same as active ingredient” (KAINOS MEDICINE, INC., priority 2019, dated 2026).

Each structure is given as a SMILES string. pIC50: −log10 of the molar value. Where only a bound is given, the exact number is not on record here.

In general, pIC50 refers to the negative decadic logarithm of the IC50, by convention in mol/L. Read a high pIC50 as a small IC50.

Sequence of IRAK4 (Q9NWZ3 whole entry): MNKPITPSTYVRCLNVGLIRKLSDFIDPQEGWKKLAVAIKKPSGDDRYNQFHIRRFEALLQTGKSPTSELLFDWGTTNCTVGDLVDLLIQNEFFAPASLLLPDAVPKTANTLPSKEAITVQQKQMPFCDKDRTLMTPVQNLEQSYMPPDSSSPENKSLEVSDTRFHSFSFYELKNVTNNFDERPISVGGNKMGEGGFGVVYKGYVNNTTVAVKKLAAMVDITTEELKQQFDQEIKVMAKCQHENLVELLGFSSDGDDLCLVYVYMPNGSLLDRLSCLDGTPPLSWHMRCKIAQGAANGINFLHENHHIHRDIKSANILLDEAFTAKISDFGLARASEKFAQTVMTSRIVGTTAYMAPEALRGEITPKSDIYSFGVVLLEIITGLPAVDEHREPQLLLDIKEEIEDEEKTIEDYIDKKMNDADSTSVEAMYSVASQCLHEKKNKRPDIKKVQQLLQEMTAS

The target of the test is IRAK4 (Homo sapiens (Human), UniProt Q9NWZ3). The test is described as follows: In vitro IRAK4 phosphorylation activity assay. Type of test: biochemical. Particulars: [γ-33P]-ATP, myelin basic protein substrate, 40 minutes at room temperature; categories. The method in brief:
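Radiometric filter-binding assay, no compound–kinase preincubation; 8 mM MOPS pH 7.0, 0.2 mM EDTA, 10 mM Mg acetate, 0.33 mg/mL myelin basic protein substrate, [γ-33P]-ATP. Reaction 40 min at room temperature, stopped with phosphoric acid, scintillation counting; IC50 reported in categories.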
`Cn1cc(-c2cccc(C(=O)Nc3nc(CCCC(=O)N4CCC[C@H](C(=O)O)C4)cn3-c3ccccc3)c2)cn1` [Example 207, (S)-1-(4-(2-(3-(1-methyl-1H-pyrazol-4-yl)benzamido)-1-phenyl-1H-imidazol-4-yl)butanoyl)piperidine-3-carboxylic acid]: the pIC50 is above 7.30.

For the molecule `Cn1cc(-c2cccc(C(=O)Nc3nc(CCCCC(=O)N4CCC[C@H](C(=O)O)C4)cn3-c3ccccc3)c2)cn1` [Example 208, (S)-1-(5-(2-(3-(1-methyl-1H-pyrazol-4-yl)benzamido)-1-phenyl-1H-imidazol-4-yl)pentanoyl)piperidine-3-carboxylic acid], the pIC50 is above 7.30.

The molecule `Cn1cc(-c2cccc(C(=O)Nc3nc(CCCC(=O)N4CCC(N)CC4)cn3-c3ccccc3)c2)cn1` [Example 209, N-(4-(4-(4-aminopiperidin-1-yl)-4-oxobutyl)-1-phenyl-1H-imidazol-2-yl)-3-(1-methyl-1H-pyrazol-4-yl)benzamide] gave a pIC50 above 7.30.

Consider `Cn1cc(-c2cccc(C(=O)Nc3nc(CCCC(=O)N4CCC[C@@H](N)C4)cn3-c3ccccc3)c2)cn1` [Example 210, (R)—N-(4-(4-(3-aminopiperidin-1-yl)-4-oxobutyl)-1-phenyl-1H-imidazol-2-yl)-3-(1-methyl-1H-pyrazol-4-yl)benzamide], for which the pIC50 was above 7.30.

`Cn1cc(-c2cccc(C(=O)Nc3nc(CCCC(=O)N4CCC[C@H](N)C4)cn3-c3ccccc3)c2)cn1` [Example 211, (S)—N-(4-(4-(3-aminopiperidin-1-yl)-4-oxobutyl)-1-phenyl-1H-imidazol-2-yl)-3-(1-methyl-1H-pyrazol-4-yl)benzamide] showed a pIC50 above 7.30.

As for `Cn1cc(-c2cccc(C(=O)Nc3nc(CCCC(=O)N4CC[C@@H](N)C4)cn3-c3ccccc3)c2)cn1` [Example 212, (R)—N-(4-(4-(3-aminopyrrolidin-1-yl)-4-oxobutyl)-1-phenyl-1H-imidazol-2-yl)-3-(1-methyl-1H-pyrazol-4-yl)benzamide], the pIC50 is above 7.30.

On to `Cn1cc(-c2cccc(C(=O)Nc3nc(CCCCC(=O)N4CCC(N)CC4)cn3-c3ccccc3)c2)cn1` [Example 213, N-(4-(5-(4-aminopiperidin-1-yl)-5-oxopentyl)-1-phenyl-1H-imidazol-2-yl)-3-(1-methyl-1H-pyrazol-4-yl)benzamide], for which the pIC50 is above 7.30.

`Cn1cc(-c2cccc(C(=O)Nc3nc(CCCC(=O)NC4CCNCC4)cn3-c3ccccc3)c2)cn1` [Example 214, 3-(1-methyl-1H-pyrazol-4-yl)-N-(4-(4-oxo-4-(piperidin-4-ylamino)butyl)-1-phenyl-1H-imidazol-2-yl)benzamide] gave a pIC50 below 7.00.

The molecule `Cn1cc(-c2cccc(C(=O)Nc3nc(CCCC(=O)N[C@H]4CC[C@H](N)CC4)cn3-c3ccccc3)c2)cn1` [Example 215, N-(4-(4-(((1R,4R)-4-aminocyclohexyl)amino)-4-oxobutyl)-1-phenyl-1H-imidazol-2-yl)-3-(1-methyl-1H-pyrazol-4-yl)benzamide] showed a pIC50 of 7.00 to 7.30.

Regarding `Cn1cc(-c2cccc(C(=O)Nc3nc(CCCC(=O)Nc4cc[nH]n4)cn3-c3ccccc3)c2)cn1` [Example 217, N-(4-(4-((1H-pyrazol-3-yl)amino)-4-oxobutyl)-1-phenyl-1H-imidazol-2-yl)-3-(1-methyl-1H-pyrazol-4-yl)benzamide], the pIC50 is above 7.30.

In the case of `CN1CCN(N(C)C(=O)CCCc2cn(-c3ccccc3)c(NC(=O)c3cccc(-c4cnn(C)c4)c3)n2)CC1` [Example 218, N-(4-(4-(methyl(4-methylpiperazin-1-yl)amino)-4-oxobutyl)-1-phenyl-1H-imidazol-2-yl)-3-(1-methyl-1H-pyrazol-4-yl)benzamide], the pIC50 was above 7.30.

Take `Cn1cc(-c2cccc(C(=O)Nc3nc(CCCCN4CCCCC4)cn3-c3ccccc3)c2)cn1` [Example 219, 3-(1-methyl-1H-pyrazol-4-yl)-N-(1-phenyl-4-(4-(piperidin-1-yl)butyl)-1H-imidazol-2-yl)benzamide]: the pIC50 is above 7.30.

`Cn1cc(-c2cccc(C(=O)Nc3nc(CCCCCCN4CCCCC4)cn3-c3ccccc3)c2)cn1` [Example 220, 3-(1-methyl-1H-pyrazol-4-yl)-N-(1-phenyl-4-(6-(piperidin-1-yl)hexyl)-1H-imidazol-2-yl)benzamide]: the pIC50 was above 7.30.

For `CN1CCN(CCCCc2cn(-c3ccccc3)c(NC(=O)c3cccc(-c4cnn(C)c4)c3)n2)CC1` [Example 221, 3-(1-methyl-1H-pyrazol-4-yl)-N-(4-(4-(4-methylpiperazin-1-yl)butyl)-1-phenyl-1H-imidazol-2-yl)benzamide], the pIC50 was above 7.30.

`Cn1cc(-c2cccc(C(=O)Nc3nc(CCCCCCN4CCCC4)cn3-c3ccccc3)c2)cn1` [Example 222, 3-(1-methyl-1H-pyrazol-4-yl)-N-(1-phenyl-4-(6-(pyrrolidin-1-yl)hexyl)-1H-imidazol-2-yl)benzamide]: the pIC50 was above 7.30.

`Cn1cc(-c2cccc(C(=O)Nc3nc(CCCCCCN4CCCCCC4)cn3-c3ccccc3)c2)cn1` [Example 223, N-(4-(6-(azepan-1-yl)hexyl)-1-phenyl-1H-imidazol-2-yl)-3-(1-methyl-1H-pyrazol-4-yl)benzamide] had a pIC50 above 7.30.

`Cn1cc(-c2cccc(C(=O)Nc3nc(CCCCN4CCCC4=O)cn3-c3ccccc3)c2)cn1` [Example 224, 3-(1-methyl-1H-pyrazol-4-yl)-N-(4-(4-(2-oxopyrrolidin-1-yl)butyl)-1-phenyl-1H-imidazol-2-yl)benzamide]: the pIC50 is above 7.30.

In turn, `Cn1cc(-c2cccc(C(=O)Nc3nc(CCCCCCN4CCCC4=O)cn3-c3ccccc3)c2)cn1` [Example 225, 3-(1-methyl-1H-pyrazol-4-yl)-N-(4-(6-(2-oxopyrrolidin-1-yl)hexyl)-1-phenyl-1H-imidazol-2-yl)benzamide] showed a pIC50 above 7.30.

The molecule `Cn1cc(-c2cccc(C(=O)Nc3nc(CCCCCCN4C(=O)CCC4=O)cn3-c3ccccc3)c2)cn1` [Example 226, N-(4-(6-(2,5-dioxopyrrolidin-1-yl)hexyl)-1-phenyl-1H-imidazol-2-yl)-3-(1-methyl-1H-pyrazol-4-yl)benzamide] gave a pIC50 above 7.30.

With `Cn1cc(-c2cccc(C(=O)Nc3nc(CCCCNC(=O)C4CC4)cn3-c3ccccc3)c2)cn1` [Example 227, N-(4-(4-(cyclopropanecarboxamido)butyl)-1-phenyl-1H-imidazol-2-yl)-3-(1-methyl-1H-pyrazol-4-yl)benzamide], the pIC50 was above 7.30.

The molecule `Cn1cc(-c2cccc(C(=O)Nc3nc(CCCCCCNC(=O)C4CC4)cn3-c3ccccc3)c2)cn1` [Example 228, N-(4-(6-(cyclopropanecarboxamido)hexyl)-1-phenyl-1H-imidazol-2-yl)-3-(1-methyl-1H-pyrazol-4-yl)benzamide] showed a pIC50 above 7.30.

Molecule `O=C(CCCc1cn(-c2ccccc2)c(NC(=O)c2cccc(-c3cn[nH]c3F)c2)n1)NC1CC1` [Example 229, N-(4-(4-(cyclopropylamino)-4-oxobutyl)-1-phenyl-1H-imidazol-2-yl)-3-(5-fluoro-1H-pyrazol-4-yl)benzamide] gave a pIC50 above 7.30.

Molecule `CN1CCN(C(=O)CCCc2cn(-c3ccccc3)c(NC(=O)c3cccc(-c4cn[nH]c4F)c3)n2)CC1` [Example 230, 3-(5-fluoro-1H-pyrazol-4-yl)-N-(4-(4-(4-methylpiperazin-1-yl)-4-oxobutyl)-1-phenyl-1H-imidazol-2-yl)benzamide] gave a pIC50 above 7.30.

`O=C(Nc1nc(CCCC(=O)N2CCCCC2)cn1-c1ccccc1)c1cccc(-c2cn[nH]c2F)c1` [Example 231, 3-(5-fluoro-1H-pyrazol-4-yl)-N-(4-(4-oxo-4-(piperidin-1-yl)butyl)-1-phenyl-1H-imidazol-2-yl)benzamide] showed a pIC50 above 7.30.

The molecule `Cn1ncc(-c2cccc(C(=O)Nc3nc(CCCC(=O)NC4CC4)cn3-c3ccccc3)c2)c1F` [Example 232, N-(4-(4-(cyclopropylamino)-4-oxobutyl)-1-phenyl-1H-imidazol-2-yl)-3-(5-fluoro-1-methyl-1H-pyrazol-4-yl)benzamide] showed a pIC50 of 7.00 to 7.30.

Turning to `CN(C(=O)CCCc1cn(-c2ccccc2)c(NC(=O)c2cccc(-c3cnn(C)c3F)c2)n1)C1CC1` [Example 233, N-(4-(4-(cyclopropyl(methyl)amino)-4-oxobutyl)-1-phenyl-1H-imidazol-2-yl)-3-(5-fluoro-1-methyl-1H-pyrazol-4-yl)benzamide], the pIC50 is 7.00 to 7.30.

Consider `O=C(CCCc1cn(-c2ccccc2)c(NC(=O)c2cccc(-c3cnn(CF)c3)c2)n1)NC1CC1` [Example 234, N-(4-(4-(cyclopropylamino)-4-oxobutyl)-1-phenyl-1H-imidazol-2-yl)-3-(1-(fluoromethyl)-1H-pyrazol-4-yl)benzamide], for which the pIC50 is above 7.30.

In turn, `O=C(CCCc1cn(-c2ccccc2)c(NC(=O)c2cccc(-c3cnn(C(F)F)c3)c2)n1)NC1CC1` [Example 235, N-(4-(4-(cyclopropylamino)-4-oxobutyl)-1-phenyl-1H-imidazol-2-yl)-3-(1-(difluoromethyl)-1H-pyrazol-4-yl)benzamide] had a pIC50 above 7.30.

`O=C(CCCc1cn(-c2ccccc2)c(NC(=O)c2cccc(-c3cnn(C(F)(F)F)c3)c2)n1)NC1CC1` [Example 236, N-(4-(4-(cyclopropylamino)-4-oxobutyl)-1-phenyl-1H-imidazol-2-yl)-3-(1-(trifluoromethyl)-1H-pyrazol-4-yl)benzamide] gave a pIC50 above 7.30.

Molecule `O=C(Nc1nc(CCCCCC(=O)N2CCCCC2)cn1-c1ccccc1)c1cccc(-c2ccc3[nH]ncc3c2)c1` [Example 237, 3-(1H-indazol-5-yl)-N-(4-(6-oxo-6-(piperidin-1-yl)hexyl)-1-phenyl-1H-imidazol-2-yl)benzamide] gave a pIC50 above 7.30.

Consider `O=C(CCCCCc1cn(-c2ccccc2)c(NC(=O)c2cccc(-c3ccc4[nH]ncc4c3)c2)n1)NC1CC1` [Example 238, N-(4-(6-(cyclopropylamino)-6-oxohexyl)-1-phenyl-1H-imidazol-2-yl)-3-(1H-indazol-5-yl)benzamide], for which the pIC50 was above 7.30.
